Data taken from PMC8980233, “Differentiating the Neuropharmacological Properties of Nicotinic Acetylcholine Receptor-Activating Alkaloids” (Frontiers in Pharmacology, 2022).

Key:
C57Bl/6 mice [1] = assay: Tolerability test (body weight, body temperature, passive signs, manipulation responses); conditions: for BT (°C) naïve / Manipulations naïve / Passive naïve: baseline; for BW Day 1 / BW Day 2: mean ± SD
Description: In brief, mice were single-housed prior to the test and evaluated for baseline body weight, body temperature, and other parameters. […] On day 1, the mice were i. p. injected with saline (vehicle) or a test compound at 10 ml/kg body weight. Then, body temperature was measured at 15 min, 4 h, and 24 h and body weight on days 1 and 2. Neurological and motor parameters were evaluated at 15 min, 2 h, and 4 h after administration. The list of parameters is provided in Supplementary Figure S1 in Supplementary Material S1.
In addition, within 5 min after the 15-min observation period, mice were placed in open-field chambers for 30 min to determine their general motor activity (distance traveled), ambulatory time, and number of rears. The open-field chambers were made of Plexiglas (27.3 × 27.3 × 20.3 cm; Med Associates Inc, St Albans, VT, United States) surrounded by infrared photobeam sources (16 × 16 × 16 beams). Horizontal activity (distance and time traveled) and vertical activity (number and frequency of rears) were measured by consecutive beam breaks. At the end of each open-field test session, the chambers were thoroughly cleaned with NOLVASAN® solution (Zoetis Services LLC, Parsippany, NJ, United States). Four mice were used per treatment condition. Mice were terminated after completion of the last tolerability observation.
All compounds were diluted in saline, and the pH was adjusted to approximately 7.0 with HCl or NaOH on the day of the experiment. […] The doses were calculated based on the free base molecular weight of the compounds.
For the tolerability tests, passive signs and manipulation responses were analyzed for effects of the treatment by the Kruskal–Wallis test. Body temperature and body weight data were analyzed by two-way repeated measures analysis of variance (ANOVA). The total distance and time traveled and number and frequency of rears in the open-field activity test were analyzed by one-way ANOVA, followed by the Tukey post-hoc test. For the analyses of the zebrafish NTT data, one-way ANOVA was used, followed by Dunnett’s multiple comparison test, if it passed the Shapiro-Wilk normality test. […] An effect was considered significant if p < 0.05. The half maximal effective concentration (EC50) and half-maximal inhibitory concentration (IC50) for the receptor pharmacology and neurotransmitter release assay were determined by using nonlinear regression analysis. Statistical analyses were conducted using GraphPad Prism.

C57Bl/6 mice [2] = assay: SmartCube behavioral profiling; assay type: in vivo; conditions: single i.p. injection, all doses tested
Text: The SmartCube^ ® system is a unique mouse behavior profiling system developed by PsychoGenics Inc. It extracts over 2000 spontaneous and challenge-induced behavioral features during a session ([Alexandrov et al., 2015]; [Alexandrov et al., 2016]). The recorded behavioral parameters are then compared against the behavioral profiles of marketed reference compounds in the database, and the test compounds are classified into known drug classes using PsychoGenics’ proprietary bioinformatics algorithms. In brief, mice were i. p. injected with vehicle or test compound at 10 ml/kg body weight and placed in the SmartCube^ ® arena (24 cm × 25 cm) 15 min later. Spontaneous and stimulus-induced behaviors of mice were recorded using force sensors distributed throughout the arena during a 45-min test session. In addition, three high-resolution video cameras provided a constant 3-dimensional (3D) view of the mouse behavior in the SmartCube^ ® arena throughout the testing period. The bedding was vacuumed, and the arena was cleaned with NOLVASAN^ ® solution between each run. Data from the SmartCube^ ® test were processed using PsychoGenics’ proprietary Computer Vision feature extraction, Bayesian probabilistic density models, and data mining algorithms, trained on a large library of reference compounds with known therapeutic indications to predict the underlying class of each test compound ([Alexandrov et al., 2015]; [Alexandrov et al., 2016]). Twelve mice were tested per condition. Mice were terminated after the completion of the SmartCube^ ® test.
The doses were calculated based on the free base molecular weight. The doses were selected based on the tolerability test results.

α3β4 nAChR = α3β4 nAChR (Homo sapiens, UniProt P30926+P32297); assay: nAChR functional assay, automated patch-clamp; assay type: cell-based
Description: The following selection antibiotics were used for the cell lines: G418 (0.25 mg/ml; Sigma-Aldrich) and Zeocin^TM (0.4 mg/ml; InvivoGen, San Diego, CA, United States) for α7/Ric3 nAChR and α3β4 nAChR cells; puromycin (8 μg/ml; InvivoGen) and hygromycin B (0.4 mg/ml; Gibco) for α4β2 nAChR cells; and G418 (0.5 mg/ml), puromycin (0.25 μg/ml), and hygromycin B (0.02 mg/ml) for α6/3β2/β3 nAChR cells. […] The human nAChRs were selected due to the lack of commercially available nAChR expression systems for mouse or zebrafish.
Data were analyzed using the Patchmaster software and corrected for leak current. The data acceptance criteria were as follows: seal resistance >100 MΩ; seal resistance loss variation <50%; access resistance <20 MΩ; and minimum current amplitude elicited by maximal effect concentration acetylcholine >50 pA. Offline data analysis was performed in OpenOffice™ (v4.1.2; The Apache Software Foundation, Wakefield, MA, United States). […] Igor Pro (v6.2.2.2; WaveMetrics, Lake Oswego, OR, United States) or Prism (v8.2.1) were used for assessing the concentration–response curves.

α3β4 nAChR, sequence (P32297 32-505): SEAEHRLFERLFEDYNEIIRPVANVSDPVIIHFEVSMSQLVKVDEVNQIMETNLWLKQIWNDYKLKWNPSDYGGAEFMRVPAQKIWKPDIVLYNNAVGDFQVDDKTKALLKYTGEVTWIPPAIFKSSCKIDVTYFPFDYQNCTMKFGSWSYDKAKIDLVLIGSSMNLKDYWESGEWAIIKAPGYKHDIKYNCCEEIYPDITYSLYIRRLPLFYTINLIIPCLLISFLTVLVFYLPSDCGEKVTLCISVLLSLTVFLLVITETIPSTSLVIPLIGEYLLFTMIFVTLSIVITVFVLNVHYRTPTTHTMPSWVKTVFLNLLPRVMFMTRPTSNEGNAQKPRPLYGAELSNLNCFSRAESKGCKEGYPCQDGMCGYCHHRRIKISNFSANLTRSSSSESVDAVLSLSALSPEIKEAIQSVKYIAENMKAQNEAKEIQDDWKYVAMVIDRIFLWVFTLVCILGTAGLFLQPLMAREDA
α3β4 nAChR, sequence (P30926 22-498): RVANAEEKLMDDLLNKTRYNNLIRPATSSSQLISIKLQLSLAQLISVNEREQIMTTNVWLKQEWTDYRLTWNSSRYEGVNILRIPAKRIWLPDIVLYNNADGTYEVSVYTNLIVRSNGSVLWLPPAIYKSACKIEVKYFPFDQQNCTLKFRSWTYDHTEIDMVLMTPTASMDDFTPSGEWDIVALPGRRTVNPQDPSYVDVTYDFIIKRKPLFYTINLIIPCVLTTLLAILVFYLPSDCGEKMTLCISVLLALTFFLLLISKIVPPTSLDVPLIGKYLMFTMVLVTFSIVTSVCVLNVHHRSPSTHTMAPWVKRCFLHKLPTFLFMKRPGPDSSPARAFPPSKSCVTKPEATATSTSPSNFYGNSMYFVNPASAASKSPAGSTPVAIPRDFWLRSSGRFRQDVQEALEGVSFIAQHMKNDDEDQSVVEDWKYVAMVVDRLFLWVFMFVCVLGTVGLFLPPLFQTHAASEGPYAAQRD

Q: Which “BT (°C) naïve” value (C57Bl/6 mice [1]; 1 mg/kg group) does the source give for C1=CCC(c2cccnc2)NC1 (racemic) [Anatabine, (±)-Anatabine] here?
A: The value was 37.95 ± 0.13 °C.

Q: And the “Manipulations naïve” value (C57Bl/6 mice [1]; 1 mg/kg group)?
A: Its value is 0.00 ± 0.00.

Q: What about the “Passive naïve” value (C57Bl/6 mice [1]; 1 mg/kg group) of the same compound?
A: The value was 0.00 ± 0.00.

Q: And the “BT (°C) 15min” value (C57Bl/6 mice [1]; 1 mg/kg i.p.)?
A: Its value is 36.98 ± 0.41 °C.

Q: What about the “BT (°C) 4hr” value (C57Bl/6 mice [1]; 1 mg/kg i.p.) of the same compound?
A: The value was 36.65 ± 0.33 °C.

Q: And the “BT (°C) 24hr” value (C57Bl/6 mice [1]; 1 mg/kg i.p.)?
A: The value was 36.88 ± 0.43 °C.

Q: What about the “Manipulations 15min” value (C57Bl/6 mice [1]; 1 mg/kg i.p.) of the same compound?
A: Its value is 0.00 ± 0.00.

Q: What about the “Manipulations 2hr” value (C57Bl/6 mice [1]; 1 mg/kg i.p.) of the same compound?
A: Its value is 0.00 ± 0.00.

Q: And the “Manipulations 4hr” value (C57Bl/6 mice [1]; 1 mg/kg i.p.)?
A: Its value is 0.00 ± 0.00.

Q: And the “Passive 15min” value (C57Bl/6 mice [1]; 1 mg/kg i.p.)?
A: The value was 0.00 ± 0.00.

Q: And the “Passive 2hr” value (C57Bl/6 mice [1]; 1 mg/kg i.p.)?
A: Its value is 0.00 ± 0.00.

Q: What about the “Passive 4hr” value (C57Bl/6 mice [1]; 1 mg/kg i.p.) of the same compound?
A: Its value is 0.00 ± 0.00.

Q: What about the “BW Day 1” value (C57Bl/6 mice [1]; 1 mg/kg i.p.) of the same compound?
A: The value was 24.46 ± 2.30.

Q: And the “BW Day 2” value (C57Bl/6 mice [1]; 1 mg/kg i.p.)?
A: Its value is 24.64 ± 2.56.

Q: And the “BT (°C) naïve” value (C57Bl/6 mice [1]; 2 mg/kg group)?
A: Its value is 37.83 ± 0.15 °C.

Q: What about the “Manipulations naïve” value (C57Bl/6 mice [1]; 2 mg/kg group) of the same compound?
A: The value was 0.00 ± 0.00.

Q: What about the “Passive naïve” value (C57Bl/6 mice [1]; 2 mg/kg group) of the same compound?
A: Its value is 0.00 ± 0.00.

Q: And the “BT (°C) 15min” value (C57Bl/6 mice [1]; 2 mg/kg i.p.)?
A: The value was 35.28 ± 0.49 °C.

Q: And the “BT (°C) 4hr” value (C57Bl/6 mice [1]; 2 mg/kg i.p.)?
A: The value was 36.48 ± 0.49 °C.

Q: What about the “BT (°C) 24hr” value (C57Bl/6 mice [1]; 2 mg/kg i.p.) of the same compound?
A: Its value is 36.45 ± 0.30 °C.

Q: What about the “Manipulations 15min” value (C57Bl/6 mice [1]; 2 mg/kg i.p.) of the same compound?
A: The value was 0.00 ± 0.00.

Q: And the “Manipulations 2hr” value (C57Bl/6 mice [1]; 2 mg/kg i.p.)?
A: Its value is 0.00 ± 0.00.

Q: And the “Manipulations 4hr” value (C57Bl/6 mice [1]; 2 mg/kg i.p.)?
A: The value was 0.00 ± 0.00.

Q: And the “Passive 15min” value (C57Bl/6 mice [1]; 2 mg/kg i.p.)?
A: Its value is 0.00 ± 0.00.

Q: What about the “Passive 2hr” value (C57Bl/6 mice [1]; 2 mg/kg i.p.) of the same compound?
A: The value was 0.00 ± 0.00.

Q: What about the “Passive 4hr” value (C57Bl/6 mice [1]; 2 mg/kg i.p.) of the same compound?
A: The value was 0.00 ± 0.00.

Q: And the “BW Day 1” value (C57Bl/6 mice [1]; 2 mg/kg i.p.)?
A: The value was 24.64 ± 1.69.

Q: What about the “BW Day 2” value (C57Bl/6 mice [1]; 2 mg/kg i.p.) of the same compound?
A: The value was 24.89 ± 2.21.

Q: And the “BT (°C) naïve” value (C57Bl/6 mice [1]; 4 mg/kg group)?
A: The value was 38.08 ± 0.05 °C.

Q: What about the “Manipulations naïve” value (C57Bl/6 mice [1]; 4 mg/kg group) of the same compound?
A: The value was 0.00 ± 0.00.

Q: And the “Passive naïve” value (C57Bl/6 mice [1]; 4 mg/kg group)?
A: Its value is 0.00 ± 0.00.

Q: And the “BT (°C) 15min” value (C57Bl/6 mice [1]; 4 mg/kg i.p.)?
A: The value was 33.92 ± 0.30 °C.

Q: And the “BT (°C) 4hr” value (C57Bl/6 mice [1]; 4 mg/kg i.p.)?
A: Its value is 36.30 ± 0.40 °C.

Q: And the “BT (°C) 24hr” value (C57Bl/6 mice [1]; 4 mg/kg i.p.)?
A: The value was 36.63 ± 0.17 °C.

Q: And the “Manipulations 15min” value (C57Bl/6 mice [1]; 4 mg/kg i.p.)?
A: The value was 0.00 ± 0.00.

Q: What about the “Manipulations 2hr” value (C57Bl/6 mice [1]; 4 mg/kg i.p.) of the same compound?
A: The value was 0.00 ± 0.00.

Q: And the “Manipulations 4hr” value (C57Bl/6 mice [1]; 4 mg/kg i.p.)?
A: Its value is 0.00 ± 0.00.

Q: What about the “Passive 15min” value (C57Bl/6 mice [1]; 4 mg/kg i.p.) of the same compound?
A: The value was 0.00 ± 0.00.

Q: What about the “Passive 2hr” value (C57Bl/6 mice [1]; 4 mg/kg i.p.) of the same compound?
A: Its value is 0.00 ± 0.00.

Q: And the “Passive 4hr” value (C57Bl/6 mice [1]; 4 mg/kg i.p.)?
A: Its value is 0.00 ± 0.00.

Q: And the “body temperature 15 min after the injection” value (C57Bl/6 mice [1]; 4 mg/kg i.p.)?
A: The value was “decreased the body temperature”.

Q: What about the “BW Day 1” value (C57Bl/6 mice [1]; 4 mg/kg i.p.) of the same compound?
A: Its value is 24.73 ± 1.23.

Q: What about the “BW Day 2” value (C57Bl/6 mice [1]; 4 mg/kg i.p.) of the same compound?
A: Its value is 24.43 ± 1.13.

Q: And the “SmartCube drug classification / behavioral features” value (C57Bl/6 mice [2])?
A: Its value is “no detectable effect”.

Q: And the EC50 (α3β4 nAChR; mean ± S.D., no effect = up to 33 μM)?
A: The EC50 was 70.6 ± 8.2 µM.

Q: What about the “% of the full receptor activity, α3β4 nAChR” value (α3β4 nAChR; preliminary, data not shown) of the same compound?
A: Its value is roughly 40%.
